# Laboratory results taken from patent US8815309B2, “Methods of treating a subject with benign prostate hyperplasia” (Zafgen, Inc., priority 2010, dated 2014).
# Marks after values point to notes of the source that are not given here.
# Tested on: prostate gland
# Test: Prostate weight in male rats after once daily intravenous infusion for four weeks
# Type: in vivo, rat
# Settings: 15-min iv infusion once daily for four weeks, N=10
# Method: Male rats were divided into a control group and three test groups with 20 animals per group. Animals were administered the MetAP-2 inhibitor Compound I, represented by the formula: Compound I was prepared in a 5% mannitol solution was administered once daily for four weeks by a fifteen-minute intravenous infusion according to Table I. [table] Ten animals from each group were euthanized at the end of the four weeks. The remaining ten animals were allowed to recover for 10 additional weeks and were then euthanized.
smiles,measurement,setting,value
CO[C@@H]1[C@H](OC(=O)/C=C/c2ccc(OCCN(C)C)cc2)CCC2(CO2)[C@H]1[C@@]1(C)O[C@@H]1CC=C(C)C (stereo in doubt) [Compound I],Prostate Weight (g) Mean,0.04 mg/kg/day,0.90** g
same,Prostate Weight (g) Mean,0.2 mg/kg/day,0.89** g
same,Prostate Weight (g) Mean,1.0 mg/kg/day,0.76** g
